Reference: ChEMBL document CHEMBL1129700, “Utilization of wieland furoxan synthesis for preparation of 4-aryl-1,2,5-oxadiazole-3-yl carbamate derivatives having potent anti-HIV activity” (Bioorg Med Chem Lett, 1996)

Columns and labels:
[1] = Selectivity index based on the ratio of CC50 to EC50; type: functional
MT4 [2] = experiment: Tested for 50% effective concentration based on the inhibition of HIV-I induced cytopathic effect in MT-4 cells; type: functional, cell-based; details: Homo sapiens
MT4 [3] = experiment: Tested for 50% cytotoxic concentration based on the reduction of viability in mock-infected MT-4 cells; type: functional; details: Homo sapiens

Structure (SMILES)	SI [1]	EC50 (MT4 [2])	CC50 (MT4 [3])
CCCN(C)C(=O)Oc1nsnc1-c1c(Cl)cccc1Cl	10000	–	–
CCCN(C)C(=O)Oc1no[n+]([O-])c1-c1ccccc1	1	20 µM	25 µM
CN(C)C(=O)Oc1nsnc1-c1ccccc1	8	5.6 µM	46.8 µM
Cc1cn([C@H]2C[C@H](N=[N+]=[N-])[C@@H](CO)O2)c(=O)[nH]c1=O [ZIDOVUDINE]	800	0.004 µM	3.2 µM
CCCN(C)C(=O)Oc1nonc1-c1ccccc1	6.5	2 µM	13 µM
CCCN(C)C(=O)Oc1no[n+]([O-])c1-c1c(Cl)cccc1Cl	72	0.12 µM	8.6 µM
